Measured values published in patent publication US20210318306A1, “Compositions for and Methods of Neutralizing Lipopolysaccharide Toxicity and Methods of Identifying the Same” (priority 2020, published 2021).
Where “and” joins values, the source holds several entries; their conditions need not be identical. Equal values may be shown once. Entries after “also recorded” stand apart in the source; their conditions may differ.

Key:
Format in all cases: cell-based, human
HEK-Blue hTLR4 cells [1] = assay: IL-8 dose response in HEK-Blue hTLR4 cells with P.g. LPS 1 μg/ml and 3X-24X dilutions of simple solutions (Example 4)
Experimental: (§1) HEK-Blue hTLR4 cells (Invivogen, cat #hkb-htlr4) were cultured in a DMEM culture medium supplemented with 10% FBS and 1% penstrep at 37° C. with 5% CO2. LPS from Porphyromonas gingivalis (P.g. LPS; Invivogen, cat #tlrl-pglps and cat #tlrl-ppglps) activates TLR4 receptor and downstream inflammation in HEK-Blue hTLR4 cells. P.g. LPS is co-incubated with HEK-Blue hTLR4 cells in the absence or presence of the simple solutions. Standard and ultrapure P.g. LPS were both used due to ultrapure being a specific ligand for the TLR4 receptor while standard LPS is a ligand for both TLR2 and TLR4.
(§2) The simple solutions a) Zinc Oxide (ZnO), b) Zinc Citrate (ZnCitrate), c) Zinc Oxide+Zinc Citrate (Dual Zinc; DZ), d) Dual Zinc+Arginine (DZA, zinc oxide, zinc citrate and arginine), and e) L-Arginine (Arg) were diluted at different concentrations with culture medium.
2) experiments using 3×, 6×, 12×, and 24× dilution fold of the simple solutions (see Table 6 below).
(§3) HEK-Blue hTLR4 cells were plated in 96-well plates and grown until confluent at 37° C. and 5% CO2 in HEK-blue selection media (DMEM with 10% FBS, 1% penicillin-streptomycin, and antibiotics for HEK-blue selection (Invivogen, cat #hb-sel)). Cells were co-incubated overnight with varying concentrations of different zinc actives as well as arginine and stimulated with either 0.1 μg/mL standard P. gingivalis LPS or 1 μg/mL ultrapure P. gingivalis LPS. Cell supernatants were collected for human inflammation cytokine panels using Multiplex and ELISA analysis.
(§4) Multiplex analysis was performed using the MILLIPLEX MAP Human Cytokine/Chemokine Magnetic Bead Panel—Immunology Multiplex Assay for IL-1, IL-6, IL-8, TNFα, and GM-CSF (Millipore Sigma, cat #HCYTOMAG-60K).
In order to understand the role of Arginine in the inhibition of LPS induced inflammation, a dose response experiment was performed using ultrapure P.g. LPS, which only specifically targets TLR4 receptor, in order to maximize the activation of NF-kB and expression of IL-8.
The testing samples were prepared as the stock simple solutions. […] The first serial dilution was made 3 times with water, a dilution factor simulating dilution of toothpastes while brushing. Additional serial dilutions were made by 2-fold of the first dilution to study dose response effect.

HEK-TLR4 cells = assay: P. gingivalis LPS-induced cytokine secretion by HEK-TLR4 cells, Luminex 5-plex magnetic bead panel (Example 2)
Experimental: Commercially available HEK-Blue TLR4 cells (Invitrogen) are recombinant HEK 293 cells that have been transformed with DNA that encodes TLR4 that is expressed and present on the cell surface. HEK-Blue TLR4 cells are grown ion culture and used can be used in experimental assays to identify test compositions that modulate inflammation pathways stimulated by TLR4-LPS interaction.
Initial for LPS and zinc-containing starting solutions were made as follows. An LPS starting solution was prepared as follows: a […] solution of LPS was prepared using 2 μl of 1 mg/ml LPS and 10 ml media. Multiple zinc starting solutions were each prepared using media as diluent: a) 20 mM zinc oxide, b) 2 mM zinc oxide, c) 20 mM zinc citrate, d) 2 mM zinc citrate, e) 20 mM of a composition containing a 2:1 mixture of zinc oxide and zinc citrate and f) 2 mM of a composition containing a 2:1 mixture of zinc oxide and zinc citrate. The starting solutions were used to prepare various test samples.
In some embodiments, control assays include “Untreated”, in which eight Zinc test samples without LPS were made: […], 10 mM zinc oxide+zinc citrate, 1 mM zinc oxide+zinc citrate, 10 mM zinc oxide+zinc citrate+arginine and 1 mM zinc oxide+zinc citrate+arginine, The test samples without LPS were prepared by diluting the zinc starting solutions with equal parts media. Eight test samples with LPS were made: […], […], […], […], 10 mM zinc oxide+zinc citrate LPS, 1 mM zinc oxide+zinc citrate LPS, 10 mM zinc oxide+zinc citrate+arginine LPS and 1 mM zinc oxide+zinc citrate+arginine LPS. The test samples with LPS were prepared by diluting the zinc starting solutions with equal parts LPS starting solution.
(§5) Cells were grown to 70-80% confluent in a 96 well plate. 100 uL of a test sample was added to a well. Cells with test sample were incubated overnight. Media was collected from each well and transferred to a corresponding well in a 96-well plate. Assays to measure proinflammatory cytokines including IL-8 secretion were performed for each well.
(§6) Inflammation markers in supernatants collected from HEK-Blue cells co-incubated with Zinc and Zinc+LPS were quantified using Luminex Magpix instrument (MAGPIX-XPON42) and human 5-plex cytokine/chemokine Magnetic bead panel (Millipore HCYTOMAG-60K). The human 5-plex cytokine/chemokine Magnetic bead panel quantifies TNF-α, IL-6, IL-8, IL-1β and GM-CSF.
The Luminex Kit Procedure outlined in the instruction manual for each separate Luminex kit was performed on the supernatants collected from the HEK-Blue cells co-incubated with Zinc test solutions without LPS and Zinc test solutions plus LPS. Quality controls in range for the specified analytes were performed to ensure levels were within the acceptable range.
To run the Luminex Test, all necessary calibration and verification procedures as outlined by the MagPix and xPonent softwares were completed and the appropriate protocol for the assay was selected. The standards were verified to be correct and complete the plate layout of samples was verified. […] The “Avg. Result” was identified in the results generated.
Experiments were conducted to identify compositions that inhibit P. gingivalis LPS-induced IL-8, TNFα, GM-CSF, IL-1β and IL-6 by HEK-TLR4 cells. HEK-TLR4 cells in 96 well plates were contacted with 100 μl samples. IL-8, TNFα, GM-CSF, IL-1β and IL-6 were detected as described above.

HEK-Blue hTLR4 cells [2] = assay: IL-8 in HEK-Blue hTLR4 cell supernatants with standard P.g. LPS and simple solutions at 1 mM vs 10 mM total zinc (Example 4)
Experimental: as §1, §2
1) experiments using 1 mM vs 10 mM total zinc; and
as §3, §4
Testing was performed using total zinc concentrations to normalize the amount the zinc applied in the cell culture medium during co-incubation. Two concentrations of total zinc ion are based on the potential amount of zinc retained on the mouth soft tissue surface.

HEK-Blue hTLR4 cells [3] = assay: E. coli LPS- and P. gingivalis LPS-induced IL-8 by HEK-Blue hTLR4 cells (Example 3)
Experimental: as §5, §6
Experiments were conducted to identify compositions that inhibit E. coli LPS-induced IL-8 and P. gingivalis LPS-induced IL-8 by HEK-Blue hTLR4 cells. HEK-TLR4 cells in 96 well plates were contacted with 100 μl samples. IL-8 was detected as described above.

[4] = 3X dilution of stock simple solution (Table 6) with P.g. LPS (1 μg/ml)
[5] = 6X dilution of stock simple solution (Table 6) with P.g. LPS (1 μg/ml)
[6] = 12X dilution of stock simple solution (Table 6) with P.g. LPS (1 μg/ml)
[7] = 24X dilution of stock simple solution (Table 6) with P.g. LPS (1 μg/ml)
[8] = 300 ppm with 0.1μ/ml P. gingivalis LPS
[9] = 600 ppm with 0.1μ/ml P. gingivalis LPS
[10] = P. gingivalis LPS, 300 and 600 ppm
[11] = 1 mM total zinc with standard P.g. LPS (0.1 μg/ml)
[12] = 10 mM total zinc with standard P.g. LPS (0.1 μg/ml)

SMILES: [O]=[Zn] [ZnO, zinc oxide]
- IL-8 Concentration, Average (HEK-Blue hTLR4 cells [1]; [4]): 29.0 pg/mL
- IL-8 Concentration, replicate (HEK-Blue hTLR4 cells [1]; [4]): 32.6 pg/mL and 25.5 pg/mL
- IL-8 Concentration, Average (HEK-Blue hTLR4 cells [1]; [5]): 510.0 pg/mL
- IL-8 Concentration, replicate (HEK-Blue hTLR4 cells [1]; [5]): 646.1 pg/mL and 374.0 pg/mL
- IL-8 Concentration, Average (HEK-Blue hTLR4 cells [1]; [6]): 2658.0 pg/mL
- IL-8 Concentration, replicate (HEK-Blue hTLR4 cells [1]; [6]): 2699.5 pg/mL and 2616.4 pg/mL
- IL-8 Concentration, Average (HEK-Blue hTLR4 cells [1]; [7]): 3015.5 pg/mL
- IL-8 Concentration, replicate (HEK-Blue hTLR4 cells [1]; [7]): 3010.4 pg/mL and 3020.6 pg/mL
- inhibition of IL-8 (in words) (HEK-Blue hTLR4 cells [1]; when dilution folds increase): lose the inhibition of IL-8 gradually
- GM-CSF (raw data, single replicate) (HEK-TLR4 cells; [8]): 0.5501 pg/ml (2×) and 0.633 pg/ml and 1.577 pg/ml
- IL-1β (raw data, single replicate) (HEK-TLR4 cells; [8]): 6.491 pg/ml (2×) and 5.944 pg/ml and 6.674 pg/ml
- IL-6 (raw data, single replicate) (HEK-TLR4 cells; [8]): 3.316 pg/mL and 3.775 pg/mL and 3.171 pg/mL and 4.174 pg/mL
- IL-8 (average result) (HEK-TLR4 cells; [8]): 24200.24439257880 pg/mL
- IL-8 (raw data, single replicate) (HEK-TLR4 cells; [8]): 31890.081340469700 pg/mL and 39006.703793117100 pg/mL and 13910.330133842900 pg/mL and 11993.862302885500 pg/mL
- TNF-α (average result) (HEK-TLR4 cells; [8]): 42.3 pg/mL
- TNFα (raw data, single replicate) (HEK-TLR4 cells; [8]): 41.56 pg/mL and 39.8 pg/mL and 38.16 pg/mL and 49.7 pg/mL
- GM-CSF (raw data, single replicate) (HEK-TLR4 cells; 300 ppm, without LPS): <3.2 pg/ml (2×) and 0.3057 pg/ml and 0.5501 pg/ml
- IL-1β (raw data, single replicate) (HEK-TLR4 cells; 300 ppm, without LPS): 0.4614 pg/ml (2×) and 0.8647 pg/ml and 1.507 pg/ml
- IL-6 (raw data, single replicate) (HEK-TLR4 cells; 300 ppm, without LPS): 0.4605 pg/mL and 0.6587 pg/mL and 0.9797 pg/mL and 1.293 pg/mL
- IL-8 (average result) (HEK-TLR4 cells; 300 ppm, without LPS): 452.8 pg/mL
- IL-8 (raw data, single replicate) (HEK-TLR4 cells; 300 ppm, without LPS): 340.2 pg/mL and 393.1 pg/mL and 458.8 pg/mL and 619.1 pg/mL
- TNF-α (average result) (HEK-TLR4 cells; 300 ppm, without LPS): 1.202 pg/mL
- TNFα (raw data, single replicate) (HEK-TLR4 cells; 300 ppm, without LPS): 0.9029 pg/mL and 1.031 pg/mL and 1.244 pg/mL and 1.631 pg/mL
- GM-CSF (raw data, single replicate) (HEK-TLR4 cells; [9]): 1.142 pg/mL and 1.315 pg/mL and 0.3863 pg/mL and 0.3057 pg/mL
- IL-1β (raw data, single replicate) (HEK-TLR4 cells; [9]): 6.735 pg/mL and 6.309 pg/mL and 6.035 pg/mL and 5.701 pg/mL
- IL-6 (raw data, single replicate) (HEK-TLR4 cells; [9]): 2.617 pg/mL and 2.44 pg/mL and 1.782 pg/mL and 2.023 pg/mL
- IL-8 (average result) (HEK-TLR4 cells; [9]): 17453.90185032290 pg/mL
- IL-8 (raw data, single replicate) (HEK-TLR4 cells; [9]): 21030.114488079100 pg/mL and 14514.694724312700 pg/mL and 20392.976523123200 pg/mL and 13877.821665776500 pg/mL
- TNF-α (average result) (HEK-TLR4 cells; [9]): 26.47 pg/mL
- TNFα (raw data, single replicate) (HEK-TLR4 cells; [9]): 43.99 pg/mL and 24.75 pg/mL and 19.13 pg/mL and 18.02 pg/mL
- GM-CSF (raw data, single replicate) (HEK-TLR4 cells; 600 ppm, without LPS): 0.8854 pg/ml and 0.2263 pg/ml and 0.001671 pg/ml (2×)
- IL-1β (raw data, single replicate) (HEK-TLR4 cells; 600 ppm, without LPS): 2.871 pg/mL and 1.039 pg/mL and 0.4329 pg/mL and 0.4044 pg/mL
- IL-6 (raw data, single replicate) (HEK-TLR4 cells; 600 ppm, without LPS): 1.011 pg/ml and 0.3248 pg/ml and <3.2 pg/ml (2×)
- IL-8 (average result) (HEK-TLR4 cells; 600 ppm, without LPS): 558.8 pg/mL
- IL-8 (raw data, single replicate) (HEK-TLR4 cells; 600 ppm, without LPS): 993.3 pg/mL and 512.5 pg/mL and 355.4 pg/mL and 374 pg/mL
- TNF-α (average result) (HEK-TLR4 cells; 600 ppm, without LPS): 2.405 pg/mL
- TNFα (raw data, single replicate) (HEK-TLR4 cells; 600 ppm, without LPS): 3.729 pg/mL and 2.195 pg/mL and 1.804 pg/mL and 1.891 pg/mL
- effect on LPS-induced TNFα (in words) (HEK-TLR4 cells; [10]): reduced LPS-induced TNFα; also recorded: significantly reduced
- effect on induction of IL-8 by LPS (in words) (HEK-TLR4 cells; [10]): significantly reduced; also recorded: comparatively small effect
- IL-8 Concentration, Average (HEK-Blue hTLR4 cells [2]; [11]): 39.5 pg/mL
- IL-8 Concentration, replicate (HEK-Blue hTLR4 cells [2]; [11]): 42.95 pg/mL and 30.75 pg/mL and 35.45 pg/mL and 48.85 pg/mL
- IL-8 Concentration, Average (HEK-Blue hTLR4 cells [2]; [12]): 18.9 pg/mL
- IL-8 Concentration, replicate (HEK-Blue hTLR4 cells [2]; [12]): 20.35 pg/mL and 27.65 pg/mL and 10.45 pg/mL and 16.95 pg/mL
- IL-8 induced by co-incubation with P.g. LPS (in words) (HEK-Blue hTLR4 cells [2]; at both 1 mM and 10 mM): reduced
- IL-8 (average) (HEK-Blue hTLR4 cells [3]; 100 ppm with 1.0 μg/ml E. coli LPS): 317267829 pg/mL
- IL-8 (average) (HEK-Blue hTLR4 cells [3]; 100 ppm with 1.0 μg/ml P. gingivalis LPS): 210374063 pg/mL
- IL-8 (average) (HEK-Blue hTLR4 cells [3]; 100 ppm, without LPS): 610.1 pg/mL
- inhibitory effect on P. gingivalis LPS-induced IL-8 (in words) (HEK-Blue hTLR4 cells [3]; 500 ppm and 100 ppm): inhibitory effect
- IL-8 (average) (HEK-Blue hTLR4 cells [3]; 500 ppm with 1.0 μg/ml E. coli LPS): 564963251 pg/mL
- IL-8 (average) (HEK-Blue hTLR4 cells [3]; 500 ppm with 1.0 μg/ml P. gingivalis LPS): 275576697 pg/mL
- IL-8 (average) (HEK-Blue hTLR4 cells [3]; 500 ppm, without LPS): 448.6 pg/mL
